In US8283336B2, “Unit dosage for brain health” (N. V. Nutricia, priority 2007, dated 2012):

Test system: not given
Test: not given
Settings: per 1.0 mg of the tocopherol equivalent; cited from earlier work

Compared with `CC(C)=CCC/C(C)=C/CC/C(C)=C/CC[C@]1(C)CCc2c(C)c(O)c(C)c(C)c2O1` [RRR-α-tocotrienol], `CC(C)=CCC/C(C)=C/CC/C(C)=C/CC[C@]1(C)CCc2c(C)c(O)cc(C)c2O1` [RRR-β-tocotrienol] is lower in “IU vitamin E” value: 0.75 IU for the first, 0.08 IU for the second.

Compared with `Cc1cc(O)cc2c1O[C@](C)(CCC[C@H](C)CCC[C@H](C)CCCC(C)C)CC2` [RRR-δ-tocopherol], `Cc1c(O)cc2c(c1C)O[C@](C)(CCC[C@H](C)CCC[C@H](C)CCCC(C)C)CC2` [RRR-γ-tocopherol] is higher in “IU vitamin E” value: 0.05 IU for the first, 0.15 IU for the second.

First: CC(=O)Oc1c(C)c(C)c2c(c1C)CC[C@@](C)(CCC[C@H](C)CCC[C@H](C)CCCC(C)C)O2 [RRR-α-tocopheryl acetate]
Second: CC(=O)Oc1c(C)c(C)c2c(c1C)CCC(C)(CCCC(C)CCCC(C)CCCC(C)C)O2 (racemic) [all rac-α-tocopheryl acetate]
The “IU vitamin E” value of the first is higher: 1.36 IU for the first, 1.00 IU for the second.

Compared with `Cc1c(C)c2c(c(C)c1O)CC[C@@](C)(CCC[C@H](C)CCC[C@H](C)CCCC(C)C)O2` [RRR-α-tocopherol], `Cc1c(C)c2c(c(C)c1O)CCC(C)(CCCC(C)CCCC(C)CCCC(C)C)O2` (racemic) [all rac-α-tocopherol] is lower in “IU vitamin E” value: 1.49 IU for the first, 1.10 IU for the second.

First: Cc1c(C)c2c(c(C)c1OC(=O)CCC(=O)O)CCC(C)(CCCC(C)CCCC(C)CCCC(C)C)O2 (racemic) [all rac-α-tocopheryl succinate]
Second: Cc1c(C)c2c(c(C)c1OC(=O)CCC(=O)O)CC[C@@](C)(CCC[C@H](C)CCC[C@H](C)CCCC(C)C)O2 [RRR-α-tocopheryl succinate]
The “IU vitamin E” value of the first is lower: 0.89 IU for the first, 1.21 IU for the second.

For `Cc1cc(O)c(C)c2c1O[C@](C)(CCC[C@H](C)CCC[C@H](C)CCCC(C)C)CC2` [RRR-β-tocopherol], the “IU vitamin E” value is given as 0.75 IU.

Going from `CC(C)=CCC/C(C)=C/CC/C(C)=C/CC[C@]1(C)CCc2c(C)c(O)c(C)c(C)c2O1` [RRR-α-tocotrienol] to `CC(C)=CCC/C(C)=C/CC/C(C)=C/CC[C@]1(C)CCc2c(C)c(O)cc(C)c2O1` [RRR-β-tocotrienol], the “x mg α-TE” value falls from 0.50 mg α-TE to 0.05 mg α-TE.

Compared with `Cc1cc(O)cc2c1O[C@](C)(CCC[C@H](C)CCC[C@H](C)CCCC(C)C)CC2` [RRR-δ-tocopherol], `Cc1c(O)cc2c(c1C)O[C@](C)(CCC[C@H](C)CCC[C@H](C)CCCC(C)C)CC2` [RRR-γ-tocopherol] is higher in “x mg α-TE” value: 0.03 mg α-TE for the first, 0.10 mg α-TE for the second.

Compared with `CC(=O)Oc1c(C)c(C)c2c(c1C)CC[C@@](C)(CCC[C@H](C)CCC[C@H](C)CCCC(C)C)O2` [RRR-α-tocopheryl acetate], `CC(=O)Oc1c(C)c(C)c2c(c1C)CCC(C)(CCCC(C)CCCC(C)CCCC(C)C)O2` (racemic) [all rac-α-tocopheryl acetate] is lower in “x mg α-TE” value: 0.91 mg α-TE for the first, 0.67 mg α-TE for the second.

Going from `Cc1c(C)c2c(c(C)c1O)CC[C@@](C)(CCC[C@H](C)CCC[C@H](C)CCCC(C)C)O2` [RRR-α-tocopherol] to `Cc1c(C)c2c(c(C)c1O)CCC(C)(CCCC(C)CCCC(C)CCCC(C)C)O2` (racemic) [all rac-α-tocopherol], the “x mg α-TE” value falls from 1.0 mg α-TE to 0.74 mg α-TE.

First: Cc1c(C)c2c(c(C)c1OC(=O)CCC(=O)O)CCC(C)(CCCC(C)CCCC(C)CCCC(C)C)O2 (racemic) [all rac-α-tocopheryl succinate]
Second: Cc1c(C)c2c(c(C)c1OC(=O)CCC(=O)O)CC[C@@](C)(CCC[C@H](C)CCC[C@H](C)CCCC(C)C)O2 [RRR-α-tocopheryl succinate]
The “x mg α-TE” value of the first is lower: 0.60 mg α-TE for the first, 0.81 mg α-TE for the second.

For `Cc1cc(O)c(C)c2c1O[C@](C)(CCC[C@H](C)CCC[C@H](C)CCCC(C)C)CC2` [RRR-β-tocopherol], the “x mg α-TE” value is listed as 0.50 mg α-TE.

Test system: muscarinic acetylcholine receptor
Test: oxotremorine-induced membrane potential change in PC12 cells after incubation with nutrients (receptor functionality)
Type: cell-based
Settings: 1 day of incubation, then 50 μM oxotremorine, percentage change compared to control conditions
Protocol: After 1 day of incubation the medium+additions were replaced by control medium and the cells were stimulated with 50 μM oxotremorine, an agonist at the muscarinic acetylcholine receptor, involved in learning and memory. Oxotremorine induces a depolarization of the membrane which can be measured as a change in membrane potential. At a fixed dose of the agonist, increases in membrane potential are thought to reflect improvements in receptor functioning.

In the case of `O=c1ccn([C@@H]2O[C@H](COP(=O)(O)O)[C@@H](O)[C@H]2O)c(=O)[nH]1` [UMP, uridine monophosphate], the membrane potential change is reported as “did not affect membrane potential change”.

Test system: APP/PS1 mice
Test: neurodegeneration (amino-cupric staining of neuritic plaques) in APP/PS1 mice fed enriched diets
Type: in vivo
Settings: diet fed 3 months from 3 to 6 months of age, compared to control diet
Excerpt: (§1) These mice start showing plaques in their brains as early as 4-5 months of age and are considered a good model for AD in scientific literature.
(§2) The diets were fed for a period of 3 months until the age of 6 months. Thereafter the mice were sacrificed and their brains processed for abeta plaque analyses and neurodegeneration analyses. The brain was cut into thin slices using a vibratome and the slices were stained for abeta using an antibody recognizing human abeta and for neurodegeneration using the amino-cupric staining The total number of plaques in the hippocampus was counted and the total surface of the area covered by plaques (plaque burden) was determined. Total surface area covered with neuritic plaques (staining positive for amino-cupric) was determined to measure the level of neurodegeneration.

With `O=c1ccn([C@@H]2O[C@H](COP(=O)(O)O)[C@@H](O)[C@H]2O)c(=O)[nH]1` [UMP, uridine monophosphate] the level of neurodegeneration was “did not differ from the control”.

Test system: APP/PS1 mice
Test: abeta plaque burden in hippocampus of APP/PS1 mice fed enriched diets
Type: in vivo
Settings: diet fed 3 months from 3 to 6 months of age, compared to control diet
Excerpt: as §1, §2

For `O=c1ccn([C@@H]2O[C@H](COP(=O)(O)O)[C@@H](O)[C@H]2O)c(=O)[nH]1` [UMP, uridine monophosphate], the “plaque burden in the hippocampus” value was “not affected”.

Test system: PC12 cells
Test: survival of PC12 cells during incubation with nutrients
Type: cell-based
Settings: control medium plus nutrient

With `CC/C=C\C/C=C\C/C=C\C/C=C\C/C=C\C/C=C\CCC(=O)O` [DHA, docosahexaenoic acid] the “cell death on incubation” value was “led to cell death”.
